The subject of this assay is C. elegans. In words: Confocal imaging of zinc in C. elegans worms. It counts as in vivo. From the text:
[formula] [formula] where r(t) is the anisotropy, P(t) is the polarization, Ivv and Ivh are intensities with polarization in the vertical plane and the excitation in the vertical and horizontal planes respectively, Ihv and Ihh are intensities with polarization in the horizontal plane and the excitation in the vertical and horizontal planes respectively, and G is a g-factor that corrects for instrument sensitivity in the horizontal and vertical planes. Metal content of NMR samples. Inductively coupled plasma mass spectrometry (ICP-MS) was performed on a Thermo iCAP Q ICP-MS. 1 mg/mL of ZincBY-1 or ZincBY-4 in acetonitrile-d3 or acetonitrile-d3 only was evaporated overnight at 70° C. 150 μL of HNO3 was added and the samples were digested overnight at 70° C. Samples were diluted to a final nitric acid concentration of 3%. […] Only ^56Fe and ^64Zn were detected in the samples above background levels. […] Calculated spectra were broadened by Gaussians of width 0.2 eV, and red shifted by 0.64 eV to better match the experimental spectra per Momeni and Brown (Ref. B7; incorporated by reference in its entirety). […] Wildtype strain Bristol N2 was used as a control strain in fluorescence microscopy experiments. […] III; ruIs57[unc-119(+) pie-P1^promoter:GFP::tubulin] was used as a marker for cortical granules in fluorescence microscopy experiments. […]

SMILES strings stand for the structures. “Also recorded” adds a separate entry of the source.

For `CC(=O)NCCOc1ccc2n1[B-](F)(F)[N+]1=C(N(CCN(Cc3ccccn3)Cc3ccccn3)Cc3ccccn3)C=CC1=C2c1c(C)cc(C)cc1C` [ZincBY-4, N-(2-((7-((2-(bis(pyridin-2-ylmethyl)amino)ethyl)(pyridin-2-ylmethyl)amino)-5,5-difluoro-10-mesityl-5H-5λ4,6λ4-dipyrrolo[1,2-c:2′,1′-f][1,3,2]diazaborinin-3-yl)oxy)ethyl)acetamide], for the setting “ZincBY-4 stained worms”, the “fluorescence pattern in stained worms” value was “pattern of increasing fluorescence intensity as oocytes progress through the gonad”. Moreover, for the setting “single excitation at 488 nm”, the “spectral overlap with GFP in C. elegans” value is “small amount of ZincBY-4 emission detected in the 495-530 nm emission channel; also recorded: very little overlap of ZincBY-4 in the GFP detection channel”.

For the origin of these results see patent US11953435B2, “Zinc-responsive fluorophores” (Northwestern University, priority 2019, dated 2024).
